The source of these data is BindingDB's records for doi:10.1016/s0742-8413(97)00614-2 (University of Montana, 1997).

Structures are written as SMILES.

The assay addresses T1, 5-hydroxytryptamine receptor 1A (Oryctolagus cuniculus, UniProt Q9MZ11).
T1 sequence (Q9MZ11 whole entry): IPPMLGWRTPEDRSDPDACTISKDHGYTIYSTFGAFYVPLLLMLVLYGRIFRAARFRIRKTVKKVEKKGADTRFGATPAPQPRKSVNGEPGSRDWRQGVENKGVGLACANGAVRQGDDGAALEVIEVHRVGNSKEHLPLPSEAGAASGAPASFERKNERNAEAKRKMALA
In general, Ki refers to a measure of affinity in units of concentration, obtained from inhibition or displacement. As for `C=C1C(=O)O[C@H]2[C@H]1CC/C(C)=C\CC[C@@]1(C)O[C@@H]21`, the Ki was above 10000 nM.
The compound `NCCc1ccc(O)c(O)c1` displayed an inhibition constant Ki of 7800 nM.
As for `O=C1NCN(c2ccccc2)C12CCN(CC1COc3ccccc3O1)CC2` (stereo unspecified) [8-(2,3-Dihydro-benzo[1,4]dioxin-2-ylmethyl)-1-phenyl-1,3,8-triaza-spiro[4.5]decan-4-one], the figure is 2.4 nM.
The figure for `COc1cccc(OC)c1OCCNCC1Oc2ccccc2OC1c1ccccc1` (stereo unspecified) [NSC_185453] is 3 nM.
In turn, `FC(F)(F)c1cccc(N2CCNCC2)c1` [TFMPP] gave a Ki of 130 nM.
The figure for `CSc1ccc2c(c1)C(N1CCN(C)CC1)Cc1ccccc1S2` (stereo unspecified) [methanesulfonic acid;1-methyl-4-(3-methylsulfanyl-5,6-dihydrobenzo[b][1]benzothiepin-5-yl)piperazine] is 810 nM.
